Measured values reported in patent US8609342B2, “Reporter gene assay method” (Otsuka Pharmaceutical Co., Ltd., priority 2001, dated 2013).

Key:
[1] = system: CHO-K1 cells; format: cell-based, hamster
Procedure: (§1) First, each test substance is dissolved in DMSO to a concentration of 10^−3 M, and the solution was 10-fold diluted stepwise (serial dilution) to give diluted test sample solutions having a test substance concentration of 10^−3 M to 10^−9 M. Then, each diluted sample solution was 100-fold diluted using a solution prepared by adding 5×10^−9 M) of 5α-dehydrotestosterone to DEMEM/F-12 medium (Gibco) (the test substance concentration becoming 10^−5 M to 10^−11 M).
(§2) CHO-K1 cells were developed on a 96-well plate to a size of about 8000 cells/84 μL of medium per well.
(§3) Separately, a solution for transfection was prepared by diluting 1 ng of pZeoSV-2-AR (prepared above in (1)), 50 ng of pIND ARE-B10 (prepared above in (2)) and 4 ng of pcDNA-EGFP (prepared above in (3)) with 6.25 μL of DMEM/F-12 medium and adding 0.15 μL of FuGENE6™ (Roche) to the dilution.
(§4) On the day after the above development, 6 μL/well of the solution for transfection was added to each well for transfection of the cells in each well (the cell culture fluid volume in each well being about 90 μL). Three hours later, each of serial 10-fold dilutions of each test sample (generally 10^−5 M to 10^−11 M) as prepared using the above-prepared medium (DMEM/F-12) supplemented with 5×10^−9 M of 5a-dehydrotestosterone was added in 10 μL portions, and cultivation was continued at room temperature (the final test substance concentrations: 10^−6 M to 10^−12 M).
At 24 hours after addition of the serial dilutions of the test sample, the GFP fluorescence intensity in each well was measured at the excitation wavelength of 485 nm and fluorescence wavelength of 535 nm using Berthord's ARVO.
(§5) In FIGS. 5 and 6, the ordinate denotes the cell survival rate (%) (the relative EGFP fluorescence intensity value at each test substance concentration as determined by taking the EGFP fluorescence intensity value measured without addition of the test substance as 100; shown by curve (1)) as well as the luciferase activity percentage (shown by curve (2)). The abscissa denotes the test substance concentration (M).

[2] = molecular target: T1, androgen receptor (Homo sapiens, UniProt P10275); assay: Reporter gene assay for androgen receptor antagonist detection (luciferase activity); format: cell-based; conditions: for antagonistic activity against the androgen receptor (judgment): judged from luciferase activity with EGFP activity as indication of cytotoxicity
T1 construct: expressed in transfected cells; host or cells: CHO-K1 cells, transiently transfected with pZeoSV2-AR, pIND ARE-B10 and pcDNA-EGFP
T1 sequence (P10275 1-920): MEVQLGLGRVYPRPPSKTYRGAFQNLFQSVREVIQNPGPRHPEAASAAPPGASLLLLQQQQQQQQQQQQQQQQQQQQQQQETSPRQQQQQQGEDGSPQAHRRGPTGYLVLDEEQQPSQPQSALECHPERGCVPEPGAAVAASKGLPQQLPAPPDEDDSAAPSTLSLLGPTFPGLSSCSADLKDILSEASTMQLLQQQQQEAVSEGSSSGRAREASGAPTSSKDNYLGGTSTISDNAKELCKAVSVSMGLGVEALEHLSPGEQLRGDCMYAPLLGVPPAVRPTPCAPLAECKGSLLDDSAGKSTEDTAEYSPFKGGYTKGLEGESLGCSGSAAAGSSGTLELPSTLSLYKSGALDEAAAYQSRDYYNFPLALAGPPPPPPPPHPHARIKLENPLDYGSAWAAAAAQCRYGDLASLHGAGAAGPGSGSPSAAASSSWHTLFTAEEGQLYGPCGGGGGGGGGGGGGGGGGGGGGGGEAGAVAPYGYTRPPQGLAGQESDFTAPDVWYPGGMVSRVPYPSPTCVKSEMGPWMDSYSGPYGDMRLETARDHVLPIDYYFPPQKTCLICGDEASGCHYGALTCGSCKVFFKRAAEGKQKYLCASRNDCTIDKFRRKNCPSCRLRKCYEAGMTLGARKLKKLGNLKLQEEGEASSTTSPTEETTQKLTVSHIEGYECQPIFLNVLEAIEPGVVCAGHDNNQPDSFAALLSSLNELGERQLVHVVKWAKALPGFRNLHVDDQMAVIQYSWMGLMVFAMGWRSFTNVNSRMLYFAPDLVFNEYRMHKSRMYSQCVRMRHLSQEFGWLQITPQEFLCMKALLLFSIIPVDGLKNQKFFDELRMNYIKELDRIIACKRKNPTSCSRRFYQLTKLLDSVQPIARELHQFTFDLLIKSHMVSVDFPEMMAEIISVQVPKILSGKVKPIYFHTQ
Procedure: as §1, §2, §3, §4, §5

[3] = system: CHO-K1 cells; assay: MTT assay of CHO-K1 cells with pGL3-Control alone, in the presence of DMSO (comparison); format: cell-based, hamster; conditions: 24 hours of culture with DMSO; relative to no DMSO = 100
Procedure: For comparison, the following MTT assay and AlamarBlue assay were carried out using the respective assay kits. Thus, CHO-K1 cells with pGL3-Control alone introduced therein were used in lieu of the above-prepared cells, DMSO was added to each well to the same concentration as mentioned above and, after 24 hours of culture, the MTT assay was carried out. The MTT measurement was performed as indicated in the manual attached to the product.
(§6) In FIG. 4, the ordinate denotes the relative survival rate (%) (the relative measurement result value at each DMSO concentration with the measurement result in each test carried out without addition of DMSO being taken as 100), and the abscissa denotes the DMSO concentration (%).

[4] = system: CHO-K1 cells; format: cell-based; conditions: Chinese hamster, 24 h
Procedure: CHO-K1 cells (cells deposited with ATCC) were developed on a 96-well plate (8000 cells/well). On the next day, transfection was carried in each well with 50 ng/well of pGL3-Control (retaining the SV40 promoter and containing the luciferase gene; Promega) and 4 ng/well of pcDNA-EGFP using 0.15 μL of FuGENE6™ (Roche) (at room temperature).
To each well of the cells of the invention as prepared as described above under (4), 3 hours after transfection, DMSO was added to a final concentration of 0.125, 0.25, 1, 2, 4 or 10%.
After 24 hours following the addition of DMSO, the fluorescence intensity of EGFP expressed in each well was measured using Berthord's measuring apparatus ARVO. Immediately thereafter, the luciferase activity was measured using Steady-Glo™ (Promega) as a substrate and using Berthord's measuring apparatus ARVO.
as §6

Structure (SMILES)	cytotoxic effect [1]	antagonistic activity against the androgen receptor (judgment) [2]	also measured
CC(=O)O[C@]1(C(C)=O)CC[C@H]2[C@@H]3C=C(Cl)C4=CC(=O)[C@@H]5C[C@@H]5[C@]4(C)[C@H]3CC[C@@]21C [cyproterone acetate, Cyproterone acetate]	no cytotoxic effect was observed	–	EGFP activity (cell survival rate) ([1]; Chinese hamster, 24 h): ~100%
O=[N+]([O-])c1ccc(Oc2c(Cl)cc(Cl)cc2Cl)cc1 [CNP, chloronirophen]	any cytotoxic effect will not manifest itself	has an antagonistic activity against the androgen receptor	–
CC1(C)CNC(=NN=C(/C=C/c2ccc(C(F)(F)F)cc2)/C=C/c2ccc(C(F)(F)F)cc2)NC1 [hydramethylnone, Hydramethylnone]	–	no antagonistic activity	luciferase activity ([2]; with 5×10^−9 M 5α-dehydrotestosterone, 24 hours after addition of test substance): decreases in luciferase activity were due to cytotoxicity
C[S+](C)[O-] [DMSO, dimethyl sulfoxide]	–	–	DMSO concentration at which a decrease in MTT activity is first observed [3]: ≥ 4%; DMSO concentration from which decreases in luciferase activity are observed [4]: about 0.25%
